Test results as given in ChEMBL document CHEMBL3396981, “Synthesis and in vitro biological evaluation of 2-(phenylcarbamoyl)phenyl 4-substituted benzoates” (Bioorg Med Chem, 2015).
Converted amounts (≈) assume the structure as drawn. Bridge positions count the residues as written; N and C are the ends. Square brackets hold non-standard residues; d marks the D form. Peptide text beside a SMILES is read from it. * marks the point of attachment. Ileψ(thiazoline)Cys = CC[C@H](C)[C@H](N)C1=N[C@H](C(=O)*)CS1; dOrn = NCCC[C@@H](N)C(=O)O

Tests used:
Mycobacterium kansasii [1] = assay: Antimycobacterial activity against Mycobacterium kansasii 6509/96 after 14 days by microdilution method; type: functional; conditions: 6509/96, 336 h
Mycobacterium kansasii [2] = assay: Antimycobacterial activity against Mycobacterium kansasii 6509/96 after 21 days by microdilution method; type: functional; conditions: 6509/96, 504 h
Mycobacterium kansasii [3] = assay: Antimycobacterial activity against Mycobacterium kansasii 235/80 after 21 days by microdilution method; type: functional; conditions: 235/80, 504 h
[4] = tested on: Mycobacterium tuberculosis; assay: Antimycobacterial activity against Mycobacterium tuberculosis H37Rv 331/88 after 21 days by microdilution method; type: functional; conditions: H37Rv 331/88, 504 h
[5] = tested on: Mycobacterium tuberculosis; assay: Antimycobacterial activity against Mycobacterium tuberculosis H37Rv 331/88 after 14 days by microdilution method; type: functional; conditions: H37Rv 331/88, 336 h
Mycobacterium avium [6] = assay: Antimycobacterial activity against INH,RIF,OFX,EMB-resistant Mycobacterium avium 330/88 after 14 days by microdilution method; type: functional; conditions: 330/88, 336 h
Mycobacterium avium [7] = assay: Antimycobacterial activity against INH,RIF,OFX,EMB-resistant Mycobacterium avium 330/88 after 21 days by microdilution method; type: functional; conditions: 330/88, 504 h
Mycobacterium kansasii [8] = assay: Antimycobacterial activity against Mycobacterium kansasii 235/80 after 7 days by microdilution method; type: functional; conditions: 235/80, 168 h
Mycobacterium kansasii [9] = assay: Antimycobacterial activity against Mycobacterium kansasii 6509/96 after 7 days by microdilution method; type: functional; conditions: 6509/96, 168 h
Mycobacterium kansasii [10] = assay: Antimycobacterial activity against Mycobacterium kansasii 235/80 after 14 days by microdilution method; type: functional; conditions: 235/80, 336 h
[11] = tested on: Staphylococcus epidermidis; assay: Antibacterial activity against Staphylococcus epidermidis H 6966/08 after 48 hrs by broth microdilution method; type: functional; conditions: H 6966/08, 48 h
Enterococcus sp. [12] = assay: Antibacterial activity against Enterococcus sp. J 14365/08 after 48 hrs by broth microdilution method; type: functional; conditions: J 14365/08, 48 h
[13] = tested on: Staphylococcus epidermidis; assay: Antibacterial activity against Staphylococcus epidermidis H 6966/08 after 24 hrs by broth microdilution method; type: functional; conditions: H 6966/08, 24 h
Staphylococcus aureus [14] = assay: Antibacterial activity against methicillin-resistant Staphylococcus aureus H 5996/08 after 48 hrs by broth microdilution method; type: functional; conditions: H 5996/08, 48 h
Staphylococcus aureus [15] = assay: Antibacterial activity against Staphylococcus aureus CCM 4516/08 after 24 hrs by broth microdilution method; type: functional; conditions: CCM 4516/08, 24 h
Staphylococcus aureus [16] = assay: Antibacterial activity against Staphylococcus aureus CCM 4516/08 after 48 hrs by broth microdilution method; type: functional; conditions: CCM 4516/08, 48 h
Staphylococcus aureus [17] = assay: Antibacterial activity against methicillin-resistant Staphylococcus aureus H 5996/08 after 24 hrs by broth microdilution method; type: functional; conditions: H 5996/08, 24 h
[18] = Selectivity index, ratio of IC50 for human HepG2 cells to MIC for Mycobacterium tuberculosis; type: toxicity, cell-based; conditions: read-out: Selectivity Index
Trichosporon asahii [19] = assay: Antifungal activity against Trichosporon asahii 1188 after 24 hrs by broth microdilution method; type: functional; conditions: Trichosporon asahii, 1188, 24 h
[20] = Selectivity index, ratio of IC50 for human HepG2 cells to MIC for atypical mycobacteria
Enterococcus sp. [21] = assay: Antibacterial activity against Enterococcus sp. J 14365/08 after 24 hrs by broth microdilution method; type: functional; conditions: J 14365/08, 24 h
HepG2 [22] = assay: Cytotoxicity against human HepG2 cells after 72 hrs by MTT assay; type: cell-based; conditions: HepG2, 72 h
HepG2 [23] = assay: Cytostatic activity against human HepG2 cells after 72 hrs by MTT assay; type: functional, cell-based; conditions: HepG2, 72 h
Trichosporon asahii [24] = assay: Antifungal activity against Trichosporon asahii 1188 after 48 hrs by broth microdilution method; type: functional; conditions: Trichosporon asahii, 1188, 48 h
[25] = Selectivity index, ratio of IC50 for human HepG2 cells to MIC for Staphylococci

Row | SMILES | MIC (Mycobacterium kansasii [1]) [µM] | MIC (Mycobacterium kansasii [2]) [µM] | MIC (Mycobacterium kansasii [3]) [µM] | MIC [4] [µM] | MIC [5] [µM] | MIC (Mycobacterium avium [6]) [µM] | MIC (Mycobacterium avium [7]) [µM] | MIC (Mycobacterium kansasii [8]) [µM] | MIC (Mycobacterium kansasii [9]) [µM] | MIC (Mycobacterium kansasii [10]) [µM] | selectivity ratio [18] | Selectivity Index [20] | IC50 (HepG2 [22]) [µM] | IC50 (HepG2 [23]) [µM] | further results
1 | O=C(Nc1ccc(C(F)(F)F)cc1)c1cc(Br)ccc1O | 4 (≈ 1.44 µg/mL) | 4 (≈ 1.44 µg/mL) | 4 (≈ 1.44 µg/mL) | 1 (≈ 0.36 µg/mL) | 1 (≈ 0.36 µg/mL) | 2 (≈ 0.72 µg/mL) | 2 (≈ 0.72 µg/mL) | 2 (≈ 0.72 µg/mL) | 2 (≈ 0.72 µg/mL) | 2 (≈ 0.72 µg/mL) |  |  |  |  | 
2 | O=C(Oc1ccc(Br)cc1C(=O)Nc1ccc(C(F)(F)F)cc1)c1ccccc1 | 2 (≈ 0.928 µg/mL) | 2 (≈ 0.928 µg/mL) | 2 (≈ 0.928 µg/mL) | 1 (≈ 0.464 µg/mL) | 1 (≈ 0.464 µg/mL) | 4 (≈ 1.86 µg/mL) | 4 (≈ 1.86 µg/mL) | 2 (≈ 0.928 µg/mL) | 2 (≈ 0.928 µg/mL) | 2 (≈ 0.928 µg/mL) |  |  |  |  | 
3 | Cc1ccc(C(=O)Oc2ccc(Cl)cc2C(=O)Nc2ccc(C(F)(F)F)cc2)cc1 | 2 (≈ 0.868 µg/mL) | 2 (≈ 0.868 µg/mL) | 2 (≈ 0.868 µg/mL) | 0.5 (≈ 0.217 µg/mL) | 0.5 (≈ 0.217 µg/mL) | 4 (≈ 1.74 µg/mL) | 4 (≈ 1.74 µg/mL) | 1 (≈ 0.434 µg/mL) | 1 (≈ 0.434 µg/mL) | 1 (≈ 0.434 µg/mL) | > 100 | >12.5 | > 50 | 6.9 | MIC [11]: > 250 µM; MIC (Enterococcus sp. [12]): > 250 µM; MIC [13]: > 250 µM; MIC (Staphylococcus aureus [14]): > 250 µM; MIC (Staphylococcus aureus [15]): > 250 µM; MIC (Staphylococcus aureus [16]): > 250 µM; MIC (Staphylococcus aureus [17]): > 250 µM; MIC (Trichosporon asahii [19]): > 250 µM; MIC (Enterococcus sp. [21]): > 250 µM; MIC (Trichosporon asahii [24]): > 250 µM
4 | OC(Cn1cncn1)(Cn1cncn1)c1ccc(F)cc1F [FLUCONAZOLE] |  |  |  |  |  |  |  |  |  |  |  |  |  |  | MIC (Trichosporon asahii [19]): 4 µM (≈ 1.23 µg/mL); MIC (Trichosporon asahii [24]): 9 µM (≈ 2.76 µg/mL)
5 | O=C(Oc1ccc(Br)cc1C(=O)Nc1ccc(C(F)(F)F)cc1)c1ccc(C(F)(F)F)cc1 | 2 (≈ 1.06 µg/mL) | 4 (≈ 2.13 µg/mL) | 4 (≈ 2.13 µg/mL) | 1 (≈ 0.532 µg/mL) | 1 (≈ 0.532 µg/mL) | 2 (≈ 1.06 µg/mL) | 4 (≈ 2.13 µg/mL) | 1 (≈ 0.532 µg/mL) | 1 (≈ 0.532 µg/mL) | 2 (≈ 1.06 µg/mL) |  |  |  |  | 
6 | O=C(Oc1ccc(Cl)cc1C(=O)Nc1ccc(C(F)(F)F)cc1)c1ccccc1 | 2 (≈ 0.84 µg/mL) | 2 (≈ 0.84 µg/mL) | 1 (≈ 0.42 µg/mL) | 1 (≈ 0.42 µg/mL) | 0.5 (≈ 0.21 µg/mL) | 4 (≈ 1.68 µg/mL) | 4 (≈ 1.68 µg/mL) | 1 (≈ 0.42 µg/mL) | 2 (≈ 0.84 µg/mL) | 1 (≈ 0.42 µg/mL) |  |  |  |  | 
7 | O=C(Oc1ccc(Br)cc1C(=O)Nc1ccc(C(F)(F)F)cc1)c1ccc([N+](=O)[O-])cc1 | 0.5 (≈ 0.255 µg/mL) | 1 (≈ 0.509 µg/mL) | 1 (≈ 0.509 µg/mL) | 0.5 (≈ 0.255 µg/mL) | 0.5 (≈ 0.255 µg/mL) | 1 (≈ 0.509 µg/mL) | 2 (≈ 1.02 µg/mL) | 0.5 (≈ 0.255 µg/mL) | 0.5 (≈ 0.255 µg/mL) | 1 (≈ 0.509 µg/mL) | > 100 | >25 | > 50 | 1.25 | 
8 | CC[C@H](C)[C@H](N)C1=N[C@H](C(=O)N[C@@H](CC(C)C)C(=O)N[C@H](CCC(=O)O)C(=O)N[C@H](C(=O)N[C@H]2CCCCNC(=O)[C@H](CC(N)=O)NC(=O)[C@@H](CC(=O)O)NC(=O)[C@H](Cc3cnc[nH]3)NC(=O)[C@@H](Cc3ccccc3)NC(=O)[C@H]([C@@H](C)CC)NC(=O)[C@@H](CCCN)NC2=O)[C@@H](C)CC)CS1 [BACITRACIN] ({Ileψ(thiazoline)Cys}-L[dE]IK[dOrn]I[dF]H[dD]N; lactam 4-C) |  |  |  |  |  |  |  |  |  |  |  |  | 255 |  | MIC [11]: 31.2 µM (≈ 44.5 µg/mL); MIC (Enterococcus sp. [12]): 62.5 µM (≈ 88.9 µg/mL); MIC [13]: 15.6 µM (≈ 22.2 µg/mL); Selectivity Index [25]: 8.1; MIC (Staphylococcus aureus [14]): 15.6 µM (≈ 22.2 µg/mL); MIC (Staphylococcus aureus [15]): 7.81 µM (≈ 11.1 µg/mL); MIC (Staphylococcus aureus [16]): 15.6 µM (≈ 22.2 µg/mL); MIC (Staphylococcus aureus [17]): 15.6 µM (≈ 22.2 µg/mL); MIC (Enterococcus sp. [21]): 15.6 µM (≈ 22.2 µg/mL)
9 | O=C(Oc1ccc(Br)cc1C(=O)Nc1ccc(C(F)(F)F)cc1)c1ccc(Br)cc1 | 4 (≈ 2.17 µg/mL) | 4 (≈ 2.17 µg/mL) | 4 (≈ 2.17 µg/mL) | 1 (≈ 0.543 µg/mL) | 1 (≈ 0.543 µg/mL) | 8 (≈ 4.35 µg/mL) | 8 (≈ 4.35 µg/mL) | 1 (≈ 0.543 µg/mL) | 4 (≈ 2.17 µg/mL) | 2 (≈ 1.09 µg/mL) | > 50 | >6.25 | > 50 | 4.2 | 
